Legend:
PIP4K2C = biological target: T1, PIP4K2C (Homo sapiens, UniProt Q8TBX8); test: KINOMEscan competition binding, single dose […]; details: 10 µM
T1 sequence (Q8TBX8 2-421): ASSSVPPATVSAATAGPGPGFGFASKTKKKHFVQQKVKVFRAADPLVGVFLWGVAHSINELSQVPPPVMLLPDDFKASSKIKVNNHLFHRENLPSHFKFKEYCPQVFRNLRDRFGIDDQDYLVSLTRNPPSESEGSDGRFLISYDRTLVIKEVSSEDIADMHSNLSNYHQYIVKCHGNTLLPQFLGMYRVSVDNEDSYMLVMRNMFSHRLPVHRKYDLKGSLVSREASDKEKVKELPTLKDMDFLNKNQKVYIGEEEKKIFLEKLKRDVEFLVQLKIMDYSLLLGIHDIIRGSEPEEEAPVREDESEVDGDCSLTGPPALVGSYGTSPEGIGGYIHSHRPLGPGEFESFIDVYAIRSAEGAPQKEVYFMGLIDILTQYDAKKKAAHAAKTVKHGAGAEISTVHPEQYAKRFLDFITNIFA

PIP4Kalpha = biological target: T2, PIP4Kalpha (Homo sapiens, UniProt P48426); test: […] lipid kinase assay (PI5P phosphorylation) with purified recombinant enzyme; weak inhibition; assay type: biochemical
T2 construct: gene PIP4K2A
T2 sequence (P48426 2-406): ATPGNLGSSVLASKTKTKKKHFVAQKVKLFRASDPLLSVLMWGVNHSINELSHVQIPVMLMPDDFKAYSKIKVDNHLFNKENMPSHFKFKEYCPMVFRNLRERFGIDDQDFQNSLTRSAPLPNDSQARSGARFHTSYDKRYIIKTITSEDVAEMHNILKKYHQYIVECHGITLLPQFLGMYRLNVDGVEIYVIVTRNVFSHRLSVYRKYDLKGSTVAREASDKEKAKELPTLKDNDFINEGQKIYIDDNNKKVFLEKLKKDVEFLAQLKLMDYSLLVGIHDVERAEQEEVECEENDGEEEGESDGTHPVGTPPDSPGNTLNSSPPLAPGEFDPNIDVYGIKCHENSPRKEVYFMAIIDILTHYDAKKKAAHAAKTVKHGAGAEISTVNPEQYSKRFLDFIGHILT

PIP4Kγ = biological target: T3, PIP4Kγ (Homo sapiens, UniProt Q8TBX8); test: DiscoverX KINOMEscan competition binding Kd; also […] lipid kinase assay with purified full-length enzyme (IC50 […])
T3 construct: gene PIP4K2C; KINOMEscan construct for Kd; full length isolated PIP4Kγ for the enzyme assay
T3 sequence (Q8TBX8 2-421): T1 sequence (Q8TBX8 2-421)

| ML168 (PIP4K2C) | IC50 (PIP4Kalpha) | Kd (PIP4Kγ) | Structure (SMILES) |
| --- | --- | --- | --- |
| 23 | – | – | Cn1nnnc1Sc1ncnc2scc(-c3ccccc3)c12 [ML168] |
| – | 50 to 100 µM | 0.354 µM | Cn1nnnc1Sc1ncnc2scc(-c3cccc(S(C)(=O)=O)c3)c12 [NCT-504, 4-((1-methyl-1H-tetrazol-5-yl)thio)−5-(3-(methylsulfonyl)phenyl)thieno[2,3-d]pyrimidine] |

Source: paper PMC5743427, “Inhibition of PIP4Kγ ameliorates the pathological effects of mutant huntingtin protein” (eLife, 2017)
